Experimental data from ChEMBL document CHEMBL6103575, “Design, synthesis and evaluation of (E)-1-(4-(2-(1H-pyrazol-5-yl)vinyl)phenyl) derivatives as next generation selective RET inhibitors overcoming RET solvent front mutations (G810C/R)” (Eur J Med Chem, 2025).

Key:
[1] = Induction of apoptosis in mouse BaF3 cells harboring CCDC6-RET assessed as necrotic cells at 100 nM incubated for 48 hrs by Annexin V-PE staining based flow cytometry analysis (Rvb =0.19%); format: functional
[2] = Induction of cell cycle arrest in mouse BaF3 cells harboring CCDC6-RET G810C mutant assessed as accumulation of cells at S phase at 10 nM incubated for 24 hrs by propidium iodide staining based analysis (reference value: 12.47%); format: functional
[3] = Induction of apoptosis in mouse BaF3 cells harboring CCDC6-RET G810C mutant assessed as early apoptotic cells at 10 nM incubated for 48 hrs by Annexin V-PE staining based flow cytometry analysis (Rvb =8.74%); format: functional
[4] = Induction of apoptosis in mouse BaF3 cells harboring CCDC6-RET assessed as early apoptotic cells at 10 nM incubated for 48 hrs by Annexin V-PE staining based flow cytometry analysis (Rvb =6.21%); format: functional
[5] = Induction of apoptosis in mouse BaF3 cells harboring CCDC6-RET G810R mutant assessed as viable cells at 10 nM incubated for 48 hrs by Annexin V-PE staining based flow cytometry analysis (Rvb =86.40%); format: functional; details: read-out: Activity
[6] = Induction of cell cycle arrest in mouse BaF3 cells harboring CCDC6-RET G810C mutant assessed as accumulation of cells at G2/M phase at 30 nM incubated for 24 hrs by propidium iodide staining based analysis (reference value: 34.75%); format: functional
[7] = Induction of cell cycle arrest in mouse BaF3 cells harboring CCDC6-RET assessed as accumulation of cells at G2/M phase at 30 nM incubated for 24 hrs by propidium iodide staining based analysis (reference value: 34.11%); format: functional
[8] = Induction of cell cycle arrest in mouse BaF3 cells harboring CCDC6-RET assessed as accumulation of cells at S phase at 30 nM incubated for 24 hrs by propidium iodide staining based analysis (reference value: 13.27%); format: functional
[9] = Induction of cell cycle arrest in mouse BaF3 cells harboring CCDC6-RET G810C mutant assessed as accumulation of cells at G2/M phase at 300 nM incubated for 24 hrs by propidium iodide staining based analysis (reference value: 34.75%); format: functional
[10] = Induction of cell cycle arrest in mouse BaF3 cells harboring CCDC6-RET G810R mutant assessed as accumulation of cells at S phase at 100 nM incubated for 24 hrs by propidium iodide staining based analysis (reference value: 13.66%); format: functional
[11] = Induction of cell cycle arrest in mouse BaF3 cells harboring CCDC6-RET G810R mutant assessed as accumulation of cells at G2/M phase at 100 nM incubated for 24 hrs by propidium iodide staining based analysis (reference value: 33.61%); format: functional
[12] = Induction of apoptosis in mouse BaF3 cells harboring CCDC6-RET assessed as viable cells at 30 nM incubated for 48 hrs by Annexin V-PE staining based flow cytometry analysis (Rvb =91.16%); format: functional; details: read-out: Activity
[13] = Induction of apoptosis in mouse BaF3 cells harboring CCDC6-RET assessed as early apoptotic cells at 300 nM incubated for 48 hrs by Annexin V-PE staining based flow cytometry analysis (Rvb =6.21%); format: functional
[14] = Induction of apoptosis in mouse BaF3 cells harboring CCDC6-RET G810R mutant assessed as late apoptotic cells at 30 nM incubated for 48 hrs by Annexin V-PE staining based flow cytometry analysis (Rvb =3.21%); format: functional
[15] = molecular target: Proto-oncogene tyrosine-protein kinase receptor Ret (Homo sapiens, UniProt P07949, G810C); assay: Inhibition of RET (unknown origin) G810C mutant
[16] = Induction of apoptosis in mouse BaF3 cells harboring CCDC6-RET assessed as necrotic cells at 30 nM incubated for 48 hrs by Annexin V-PE staining based flow cytometry analysis (Rvb =0.19%); format: functional
[17] = Induction of apoptosis in mouse BaF3 cells harboring CCDC6-RET G810C mutant assessed as early apoptotic cells at 30 nM incubated for 48 hrs by Annexin V-PE staining based flow cytometry analysis (Rvb =8.74%); format: functional
[18] = Induction of cell cycle arrest in mouse BaF3 cells harboring CCDC6-RET assessed as accumulation of cells at G0/G1 phase at 100 nM incubated for 24 hrs by propidium iodide staining based analysis (reference value: 52.51%); format: functional
[19] = test system: Proto-oncogene tyrosine-protein kinase receptor Ret (Homo sapiens), P07949 [V804M]; assay: Inhibition of RET (unknown origin) V804M mutant at 1 uM relative to control
[20] = Induction of cell cycle arrest in mouse BaF3 cells harboring CCDC6-RET G810R mutant assessed as accumulation of cells at G2/M phase at 30 nM incubated for 24 hrs by propidium iodide staining based analysis (reference value: 33.61%); format: functional
[21] = Induction of apoptosis in mouse BaF3 cells harboring CCDC6-RET G810R mutant assessed as early apoptotic cells at 100 nM incubated for 48 hrs by Annexin V-PE staining based flow cytometry analysis (Rvb =10 %); format: functional
[22] = test system: Proto-oncogene tyrosine-protein kinase receptor Ret (Homo sapiens), P07949 [G810R]; assay: Inhibition of RET (unknown origin) G810R mutant at 1 uM relative to control
[23] = Induction of apoptosis in mouse BaF3 cells harboring CCDC6-RET G810C mutant assessed as early apoptotic cells at 100 nM incubated for 48 hrs by Annexin V-PE staining based flow cytometry analysis (Rvb =8.74%); format: functional
[24] = Induction of apoptosis in mouse BaF3 cells harboring CCDC6-RET assessed as late apoptotic cells at 10 nM incubated for 48 hrs by Annexin V-PE staining based flow cytometry analysis (Rvb =2.44%); format: functional
[25] = Induction of cell cycle arrest in mouse BaF3 cells harboring CCDC6-RET G810C mutant assessed as accumulation of cells at G0/G1 phase at 300 nM incubated for 24 hrs by propidium iodide staining based analysis (reference value: 52.11%); format: functional
BaF3 = assay: Inhibition of RET phosphorylation in mouse BaF3 cells harboring CCDC6-RET incubated for 12 hrs by Western blotting analysis; format: cell-based; details: dose <= 300.0 nM
[26] = Induction of cell cycle arrest in mouse BaF3 cells harboring CCDC6-RET G810R mutant assessed as accumulation of cells at G0/G1 phase at 10 nM incubated for 24 hrs by propidium iodide staining based analysis (reference value: 52.63%); format: functional
[27] = Induction of apoptosis in mouse BaF3 cells harboring CCDC6-RET assessed as late apoptotic cells at 100 nM incubated for 48 hrs by Annexin V-PE staining based flow cytometry analysis (Rvb =2.44%); format: functional
[28] = Induction of cell cycle arrest in mouse BaF3 cells harboring CCDC6-RET G810R mutant assessed as accumulation of cells at S phase at 30 nM incubated for 24 hrs by propidium iodide staining based analysis (reference value: 13.66%); format: functional

Proto-oncogene tyrosine-protein kinase receptor Ret (Homo sapiens), P07949 [V804M], sequence (P07949 whole entry V804M): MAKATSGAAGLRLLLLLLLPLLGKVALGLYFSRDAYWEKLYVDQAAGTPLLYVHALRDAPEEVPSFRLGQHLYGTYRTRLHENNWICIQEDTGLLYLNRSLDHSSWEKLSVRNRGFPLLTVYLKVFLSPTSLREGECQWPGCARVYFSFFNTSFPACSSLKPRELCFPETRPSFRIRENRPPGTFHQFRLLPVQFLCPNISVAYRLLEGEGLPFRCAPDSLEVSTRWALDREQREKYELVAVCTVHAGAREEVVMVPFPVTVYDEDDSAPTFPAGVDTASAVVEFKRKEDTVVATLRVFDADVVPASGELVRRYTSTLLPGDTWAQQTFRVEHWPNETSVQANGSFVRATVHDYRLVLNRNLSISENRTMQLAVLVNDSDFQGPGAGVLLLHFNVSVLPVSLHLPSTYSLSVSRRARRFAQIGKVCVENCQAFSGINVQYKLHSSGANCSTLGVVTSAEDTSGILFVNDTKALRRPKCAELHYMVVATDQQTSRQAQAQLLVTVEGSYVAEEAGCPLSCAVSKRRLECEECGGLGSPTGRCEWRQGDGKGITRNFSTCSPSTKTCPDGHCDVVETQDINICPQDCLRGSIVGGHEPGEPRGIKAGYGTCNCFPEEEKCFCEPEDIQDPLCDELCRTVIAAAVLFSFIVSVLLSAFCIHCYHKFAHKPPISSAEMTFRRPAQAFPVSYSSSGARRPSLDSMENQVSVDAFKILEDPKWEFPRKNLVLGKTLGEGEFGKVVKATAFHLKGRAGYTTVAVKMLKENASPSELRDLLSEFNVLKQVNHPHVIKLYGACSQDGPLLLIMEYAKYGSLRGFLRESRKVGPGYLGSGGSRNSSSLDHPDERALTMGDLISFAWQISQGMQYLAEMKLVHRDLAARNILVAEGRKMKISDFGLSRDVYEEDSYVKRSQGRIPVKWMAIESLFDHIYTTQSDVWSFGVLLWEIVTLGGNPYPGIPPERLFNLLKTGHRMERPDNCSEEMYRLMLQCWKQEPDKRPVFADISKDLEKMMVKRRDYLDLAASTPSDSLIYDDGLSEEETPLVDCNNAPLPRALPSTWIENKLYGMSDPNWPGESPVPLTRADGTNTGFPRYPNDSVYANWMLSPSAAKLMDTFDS
Proto-oncogene tyrosine-protein kinase receptor Ret, sequence (P07949 29-1114 G810C limits assumed): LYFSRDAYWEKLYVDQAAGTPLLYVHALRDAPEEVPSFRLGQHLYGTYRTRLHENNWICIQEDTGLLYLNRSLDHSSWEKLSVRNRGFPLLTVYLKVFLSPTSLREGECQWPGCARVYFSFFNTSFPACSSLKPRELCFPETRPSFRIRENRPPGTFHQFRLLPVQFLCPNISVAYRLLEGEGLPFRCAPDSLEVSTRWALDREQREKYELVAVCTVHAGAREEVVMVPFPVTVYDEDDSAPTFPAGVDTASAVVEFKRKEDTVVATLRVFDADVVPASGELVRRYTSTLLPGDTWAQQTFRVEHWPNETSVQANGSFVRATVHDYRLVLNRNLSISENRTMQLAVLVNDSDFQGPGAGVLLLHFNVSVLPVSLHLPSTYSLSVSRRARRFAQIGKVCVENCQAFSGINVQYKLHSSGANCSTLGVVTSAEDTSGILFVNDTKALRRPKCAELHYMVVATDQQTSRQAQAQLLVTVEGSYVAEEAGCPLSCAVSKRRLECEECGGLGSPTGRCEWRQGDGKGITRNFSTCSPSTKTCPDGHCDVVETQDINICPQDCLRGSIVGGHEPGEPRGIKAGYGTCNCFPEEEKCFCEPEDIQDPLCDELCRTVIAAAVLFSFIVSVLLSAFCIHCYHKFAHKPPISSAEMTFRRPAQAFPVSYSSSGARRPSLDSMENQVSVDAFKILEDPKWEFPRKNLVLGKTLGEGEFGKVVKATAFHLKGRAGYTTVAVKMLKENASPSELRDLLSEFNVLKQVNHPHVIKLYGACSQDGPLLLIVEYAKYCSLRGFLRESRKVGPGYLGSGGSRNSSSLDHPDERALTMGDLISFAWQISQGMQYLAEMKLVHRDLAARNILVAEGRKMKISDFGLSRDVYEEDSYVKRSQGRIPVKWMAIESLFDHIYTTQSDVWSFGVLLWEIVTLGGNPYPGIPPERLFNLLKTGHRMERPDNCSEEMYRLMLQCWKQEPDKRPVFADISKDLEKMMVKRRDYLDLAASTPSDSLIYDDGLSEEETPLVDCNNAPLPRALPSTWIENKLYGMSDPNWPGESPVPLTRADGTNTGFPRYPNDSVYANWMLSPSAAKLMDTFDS
Proto-oncogene tyrosine-protein kinase receptor Ret (Homo sapiens), P07949 [G810R], sequence (P07949 whole entry G810R): as the sequence (P07949 whole entry V804M) above, with M804V, G810R counted along it

## COc1cncc(-c2cn[nH]c2/C=C/c2ccc(NC(=O)Nc3cc(C(C)(C)C(F)(F)F)on3)c(Cl)c2)c1
[1]
  Activity: 0.05%
[2]
  Activity: 12.31%
[3]
  Activity: 9.11%
[4]
  Activity: 8.7%
[5]
  viability at 0.01 µM: 86.4%
[6]
  Activity: 30.79%
[7]
  Activity: 30.23%
[8]
  Activity: 13.33%
[9]
  Activity: 23.18%
[10]
  Activity: 12.78%
[11]
  Activity: 28.68%
[12]
  viability at 0.03 µM: 76.8%
[13]
  Activity: 54.65%
[14]
  Activity: 2.48%
[15]
  IC50: 7.1 nM
[16]
  Activity: 0.03%
[17]
  Activity: 9.54%
[18]
  Activity: 69.43%
[19]
  inhibition: 98.6%
[20]
  Activity: 32.17%
[21]
  Activity: 2.7%
[22]
  inhibition: 74%
[23]
  Activity: 37.84%
[24]
  Activity: 2.8%
[25]
  Activity: 72.47%
BaF3
  inhibition: Dose-dependent-effect
[26]
  Activity: 54.03%
[27]
  Activity: 1.21%
[28]
  Activity: 14.08%
